For this assay, the system named is P388 leukemia ip, CD2F1 mice, survival T/C. Kind of assay: NCI In Vivo Anticancer Drug Screen. Data for tumor model P388 Leukemia (intraperitoneal) in CD2F1 (CDF1) mice. To be noted: endpoint: median survival time, higher = longer survival. The method in brief: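 Mice carrying the transplanted tumor received test compound or vehicle. Survival was recorded in each group, and the value is the treated-group measurement divided by that of the vehicle-treated control group.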

Where [1] appears, read: dose: 50.0 mg/kg/injection, schedule: Q01DX009 (ip), vehicle: saline.
Setting [2] is: dose: 100.0 mg/kg/injection, schedule: Q01DX009 (ip), vehicle: saline.
[3] abbreviates: dose: 200.0 mg/kg/injection, schedule: Q01DX009 (ip), vehicle: saline.
[4] abbreviates: dose: 60.0 mg/kg/injection, schedule: Q01DX005 (ip), vehicle: saline with Tween-80.
Where [5] appears, read: dose: 120.0 mg/kg/injection, schedule: Q01DX005 (ip), vehicle: saline with Tween-80.
Setting [6] is: dose: 240.0 mg/kg/injection, schedule: Q01DX005 (ip), vehicle: saline with Tween-80.
The mark [7] stands for this setting: dose: 100.0 mg/kg/injection, schedule: Q01DX001 (ip), vehicle: saline with Tween-80.
Where [8] appears, read: dose: 200.0 mg/kg/injection, schedule: Q01DX001 (ip), vehicle: saline with Tween-80.
Setting [9] is: dose: 50.0 mg/kg/injection, schedule: Q01DX009 (ip), vehicle: Klucel (hydroxypropylcellulose) (HPC).
Where [10] appears, read: dose: 100.0 mg/kg/injection, schedule: Q01DX009 (ip), vehicle: Klucel (hydroxypropylcellulose) (HPC).
Where [11] appears, read: dose: 200.0 mg/kg/injection, schedule: Q01DX009 (ip), vehicle: Klucel (hydroxypropylcellulose) (HPC).

SMILES strings stand for the structures. Several values for one entry are separate records, joined by “and”; a condition that tells them apart may be missing. Identical values can stand only once. Toxic doses and inconclusive results are not listed. Numbered stars: 1 amine (or outer) side, 2 acyl side, 3 side chain; on linkers, the order of the positions; unused ones are H or OH. Bridge positions count the residues as written; N and C are the ends. Square brackets hold non-standard residues; d marks the D form. Peptide text beside a SMILES is read from it. I, II: the chains in the order shown. Actinocin(1to9) = Cc1c2oc3c(C)ccc(C(=O)[*:2])c3nc-2c(C(=O)[*:1])c(N)c1=O; Hyp = O=C(O)[CH]1C[CH](O)CN1; NMeV = CN[CH](C(=O)O)C(C)C; Sar = CNCC(=O)O

On to `CC(=O)OC(=O)C(NC(=O)C(N)CC(C)C)C(C)C` (configuration not stated), for which the T/C under setting [1] is 103 % of control, the T/C under setting [2] is 94 % of control and the T/C under setting [3] was 100 % of control.
With `c1cc(OCC2CO2)cc(OCC2CO2)c1` (configuration not stated), the T/C was 88 % of control (dose: 3.12 mg/kg/injection, schedule: Q01DX009 (ip), vehicle: DMSO); 88 % of control (dose: 6.25 mg/kg/injection, schedule: Q01DX009 (ip), vehicle: DMSO); 100 % of control (dose: 12.5 mg/kg/injection, schedule: Q01DX009 (ip), vehicle: DMSO); 104 % of control and 96 % of control (dose: 25.0 mg/kg/injection, schedule: Q01DX009 (ip), vehicle: DMSO); 104 % of control (dose: 50.0 mg/kg/injection, schedule: Q01DX009 (ip), vehicle: DMSO); 95 % of control (dose: 100.0 mg/kg/injection, schedule: Q01DX009 (ip), vehicle: DMSO).
Turning to `CCCCOC(=O)NC(=O)c1cc2cc(Br)cc(Br)c2oc1=O`, the T/C under setting [4] is 94 % of control, the T/C under setting [5] was 101 % of control and the T/C under setting [6] was 92 % of control.
`Cc1c2oc3c(C)ccc(C(=O)NC4C(=O)NC(C(C)C)C(=O)N5CCCC5C(=O)N(C)CC(=O)N(C)C(C(C)C)C(=O)OC4C)c3nc-2c(C(=O)NC2C(=O)NC(C(C)C)C(=O)N3CC(O)CC3C(=O)N(C)CC(=O)N(C)C(C(C)C)C(=O)OC2C)c(N)c1=O` (configuration not stated) (I: TV[Hyp][Sar][NMeV] / II: TVP[Sar][NMeV]; ester I:1-I:C, II:1-II:C; linker I:N-II:N via Actinocin(1to9); configuration not given here): the T/C (dose: 0.1 mg/kg/injection, schedule: Q01DX009 (ip), vehicle: Klucel (hydroxypropylcellulose) (HPC)) is 221 % of control; the T/C (dose: 0.2 mg/kg/injection, schedule: Q01DX009 (ip), vehicle: Klucel (hydroxypropylcellulose) (HPC)) is 108 % of control; the T/C (dose: 0.2 mg/kg/injection, schedule: Q01DX009 (ip), vehicle: water) was 151 % of control; the T/C (dose: 0.4 mg/kg/injection, schedule: Q01DX009 (ip), vehicle: water) is 186 % of control.
Take `CC(Nc1ccc(S(=O)(=O)Nc2ncccn2)cc1)c1ccc2cccnc2c1O` (configuration not stated): the T/C under setting [7] is 94 % of control and the T/C under setting [8] is 98 % of control.
Regarding `CC(=O)c1c(O)c(C)c(O)c2c1OC1=Cc3onc(C)c3C(=O)C12C` (configuration not stated), the T/C was 99 % of control and 102 % of control (dose: 50.0 mg/kg/injection, schedule: Q01DX009 (ip), vehicle: gum acacia); 102 % of control and 104 % of control (dose: 100.0 mg/kg/injection, schedule: Q01DX009 (ip), vehicle: gum acacia); 92 % of control and 93 % of control (dose: 200.0 mg/kg/injection, schedule: Q01DX009 (ip), vehicle: gum acacia).
With `COCN(Cc1ccccc1)C[Si](C)(C)C`, the T/C is 106 % of control under setting [7] and 99 % of control under setting [8].
Turning to `COc1ccc(C(c2cc3c(cc2O)OCO3)N2CCOCC2)cc1OC` (configuration not stated), the T/C under setting [4] was 101 % of control, the T/C under setting [5] is 109 % of control and the T/C under setting [6] was 111 % of control.
Take `CC1(C)OCC(CO)O1` (configuration not stated): the T/C was 106 % of control under setting [1], 114 % of control under setting [2] and 111 % of control under setting [3].
With `Cc1ccc2sc(-c3ccccc3)c(CCl)c(=O)c2c1`, the T/C (dose: 100.0 mg/kg/injection, schedule: Q04DX002 (ip), vehicle: saline with Tween-80) was 102 % of control; the T/C (dose: 200.0 mg/kg/injection, schedule: Q04DX002 (ip), vehicle: saline with Tween-80) was 108 % of control; the T/C (dose: 400.0 mg/kg/injection, schedule: Q04DX002 (ip), vehicle: saline with Tween-80) is 108 % of control.
For the molecule `O=C(CCCN1CCC2(CC1)C(=O)NCN2c1ccc(F)cc1)c1ccc(F)cc1`, the T/C by setting is: (dose: 50.0 mg/kg/injection, schedule: Q01DX005 (ip), vehicle: saline with Tween-80) 103 % of control; (dose: 100.0 mg/kg/injection, schedule: Q01DX005 (ip), vehicle: saline with Tween-80) 95 % of control; (dose: 200.0 mg/kg/injection, schedule: Q01DX005 (ip), vehicle: saline with Tween-80) 94 % of control.
As to `O=P1(c2ccccc2)OCC2=C(c3ccccc3)CC2=C1c1ccccc1` (configuration not stated), the T/C is, setting by setting: under setting [9], 105 % of control; under setting [10], 103 % of control; under setting [11], 105 % of control.
As to `COc1cc2nnn(-c3ccncc3)c2cc1OC`, the T/C reads like this: (dose: 25.0 mg/kg/injection, schedule: Q01DX009 (ip), vehicle: other) 100 % of control; (dose: 50.0 mg/kg/injection, schedule: Q01DX009 (ip), vehicle: other) 93 % of control; (dose: 100.0 mg/kg/injection, schedule: Q01DX009 (ip), vehicle: other) 99 % of control; (dose: 200.0 mg/kg/injection, schedule: Q01DX009 (ip), vehicle: other) 96 % of control; (dose: 400.0 mg/kg/injection, schedule: Q01DX009 (ip), vehicle: other) 96 % of control.
Regarding `C[Si](C)(C)C#CC(C(O)c1ccccc1)N1CCCC1` (configuration not stated), the T/C is, setting by setting: (dose: 100.0 mg/kg/injection, schedule: Q04DX003 (ip), vehicle: saline) 94 % of control; (dose: 200.0 mg/kg/injection, schedule: Q04DX003 (ip), vehicle: saline) 92 % of control; (dose: 400.0 mg/kg/injection, schedule: Q04DX003 (ip), vehicle: saline) 101 % of control.
For the molecule `COc1ccc(N=Nc2c(C)nn(C(N)=S)c2C)cc1`, the T/C is 93 % of control (dose: 100.0 mg/kg/injection, schedule: Q04DX002 (ip), vehicle: Klucel (hydroxypropylcellulose) (HPC)); 92 % of control (dose: 200.0 mg/kg/injection, schedule: Q04DX002 (ip), vehicle: Klucel (hydroxypropylcellulose) (HPC)); 94 % of control (dose: 400.0 mg/kg/injection, schedule: Q04DX002 (ip), vehicle: Klucel (hydroxypropylcellulose) (HPC)).
Take `CCCCCCCCCCCCCCCC(=O)N(CCCCN(C)C)CCCCN(C)C`: the T/C is, setting by setting: (dose: 1.0 mg/kg/injection, schedule: Q01DX009 (ip), vehicle: saline) 86 % of control and 95 % of control; (dose: 2.0 mg/kg/injection, schedule: Q01DX009 (ip), vehicle: saline) 97 % of control; (dose: 4.0 mg/kg/injection, schedule: Q01DX009 (ip), vehicle: saline) 97 % of control; (dose: 8.0 mg/kg/injection, schedule: Q01DX009 (ip), vehicle: saline) 103 % of control.
Consider `ICCN(CCI)c1ccc2c(ccc3ccccc32)c1`, for which the T/C was 102 % of control (dose: 100.0 mg/kg/injection, schedule: Q04DX003 (ip), vehicle: Klucel (hydroxypropylcellulose) (HPC)); 118 % of control (dose: 200.0 mg/kg/injection, schedule: Q04DX003 (ip), vehicle: Klucel (hydroxypropylcellulose) (HPC)); 118 % of control (dose: 400.0 mg/kg/injection, schedule: Q04DX003 (ip), vehicle: Klucel (hydroxypropylcellulose) (HPC)).
Consider `O=c1cc(Nc2ccc(Br)cc2)[nH]c(=O)[nH]1`, for which the T/C reads like this: under setting [4], 94 % of control; under setting [5], 100 % of control; under setting [6], 102 % of control.
As for `CN1C(=O)C/C(=N/Nc2ccccc2)NC1=O`, the T/C is 95 % of control (dose: 50.0 mg/kg/injection, schedule: Q01DX009 (ip), vehicle: saline with Tween-80); 100 % of control (dose: 100.0 mg/kg/injection, schedule: Q01DX009 (ip), vehicle: saline with Tween-80); 92 % of control (dose: 200.0 mg/kg/injection, schedule: Q01DX009 (ip), vehicle: saline with Tween-80).
On to `Nc1nc(NCCCc2ccccc2)c(N=Nc2ccccc2)c(=O)[nH]1`, for which the T/C was 105 % of control under setting [4], 105 % of control under setting [5] and 105 % of control under setting [6].
For the molecule `O=C(Nc1ccccc1)N1CC2(CN1)CNN(C(=O)Nc1ccccc1)C2`, the T/C was 103 % of control (dose: 50.0 mg/kg/injection, schedule: Q01DX001 (ip), vehicle: Klucel (hydroxypropylcellulose) (HPC)); 100 % of control (dose: 100.0 mg/kg/injection, schedule: Q01DX001 (ip), vehicle: Klucel (hydroxypropylcellulose) (HPC)); 91 % of control (dose: 200.0 mg/kg/injection, schedule: Q01DX001 (ip), vehicle: Klucel (hydroxypropylcellulose) (HPC)).
With `CC(=O)C(C)(NCc1ccccc1)c1ccccc1` (configuration not stated), the T/C was 101 % of control under setting [9]; 108 % of control under setting [10]; 108 % of control under setting [11]; 90 % of control (dose: 400.0 mg/kg/injection, schedule: Q01DX009 (ip), vehicle: Klucel (hydroxypropylcellulose) (HPC)).
